Laboratory results reported in patent US20200131156A1, “ARYLSULFONYLPYROLECARBOXAMIDE DERIVATIVES AS Kv3 POTASSIUM CHANNEL ACTIVATORS” (H. Lundbeck A/S, priority 2018, published 2020).

Biological target: T1, hKv3.1b (Homo sapiens, UniProt P48547)
T1 construct: expressed in transfected cells
T1 sequence (P48547 1-585 isoform P48547-2): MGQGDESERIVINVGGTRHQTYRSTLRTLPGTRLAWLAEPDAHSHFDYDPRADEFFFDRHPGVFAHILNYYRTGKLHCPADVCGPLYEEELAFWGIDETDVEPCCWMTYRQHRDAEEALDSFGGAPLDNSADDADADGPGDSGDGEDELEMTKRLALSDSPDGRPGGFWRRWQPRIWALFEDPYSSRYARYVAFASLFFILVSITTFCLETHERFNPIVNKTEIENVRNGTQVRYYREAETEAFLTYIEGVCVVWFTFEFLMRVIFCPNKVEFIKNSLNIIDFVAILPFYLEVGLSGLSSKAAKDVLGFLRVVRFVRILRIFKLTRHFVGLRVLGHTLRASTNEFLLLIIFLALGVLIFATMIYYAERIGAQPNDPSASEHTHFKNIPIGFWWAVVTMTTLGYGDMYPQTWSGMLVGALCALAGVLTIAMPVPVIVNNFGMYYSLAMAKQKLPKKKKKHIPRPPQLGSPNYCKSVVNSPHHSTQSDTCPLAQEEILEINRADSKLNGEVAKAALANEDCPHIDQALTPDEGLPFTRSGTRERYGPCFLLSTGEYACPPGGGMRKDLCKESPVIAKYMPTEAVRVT
Experiment: Automated patch clamp (QPatch-16x) on HEK-293 cells stably expressing hKv3.1b
Format: cell-based
Details: for ECdelta5 mV: concentration needed to shift the activation threshold 5 mV; for Threshold Shift: maximum absolute hyperpolarizing shift of activation threshold at tested concentrations 0.37-30 μM
In short: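 Whole-cell automated patch clamp, extracellular pH 7.4, 4 mM Na2ATP intracellular; holding −80 mV, 200 ms steps −70 to +10 mV. Five ascending concentrations (0.37–30 μM) per cell, ~3 min each, 0.33% DMSO vehicle. Activation threshold (5% of vehicle peak at 10 mV) shift fitted sigmoidally; ECdelta5 mV read from curve.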

| SMILES | ECdelta5 mV [nM] | Threshold Shift [mV] |
| --- | --- | --- |
| COc1ncc(CNC(=O)c2ccn(S(=O)(=O)c3ccc(C)cc3F)c2)cn1 [Compound 110, 1-(2-fluoro-4-methylbenzene-1-sulfonyl)-N-[(2-methoxypyrimidin-5-yl)methyl]-1H-pyrrole-3-carboxamide] | 1300 | 24 |
| Cc1cnc(CNC(=O)c2ccn(S(=O)(=O)c3ccccc3)c2)c(C)n1 [Compound 111, 1-(benzenesulfonyl)-N-[(3,5-dimethylpyrazin-2-yl)methyl]-1H-pyrrole-3-carboxamide] | 2900 | 21 |
| COc1ncc(CNC(=O)c2ccn(S(=O)(=O)c3ccc(OC(F)F)cc3)c2)cn1 [Compound 112, 1-[4-(difluoromethoxy)benzene-1-sulfonyl]-N-[(2-methoxypyrimidin-5-yl)methyl]-1H-pyrrole-3-carboxamide] | 4100 | 17 |
| Cc1cnc(CNC(=O)c2ccn(S(=O)(=O)c3ccccc3)c2)c(Cl)n1 [Compound 113, 1-(benzenesulfonyl)-N-[(3-chloro-5-methylpyrazin-2-yl)methyl]-1H-pyrrole-3-carboxamide] | 3500 | 14 |
| Cc1ccc(S(=O)(=O)n2ccc(C(=O)NCc3cnc(C)s3)c2)cc1 [Compound 114, 1-(4-methylbenzene-1-sulfonyl)-N-[(2-methyl-1,3-thiazol-5-yl)methyl]-1H-pyrrole-3-carboxamide] | 1600 | 15 |
| Cc1ccc(S(=O)(=O)n2ccc(C(=O)NCc3nnc(C)s3)c2)cc1 [Compound 115, 1-(4-methylbenzene-1-sulfonyl)-N-[(5-methyl-1,3,4-thiadiazol-2-yl)methyl]-1H-pyrrole-3-carboxamide] | 2800 | 17 |
| Cc1ccc(S(=O)(=O)n2ccc(C(=O)NCc3cc(C)n[nH]3)c2)cc1 [Compound 116, 1-(4-methylbenzene-1-sulfonyl)-N-[(3-methyl-1H-pyrazol-5-yl)methyl]-1H-pyrrole-3-carboxamide] | 2600 | 25 |
| COc1ccc(S(=O)(=O)n2ccc(C(=O)NCc3ccn(C)n3)c2)c(Cl)c1 [Compound 117, 1-(2-chloro-4-methoxybenzene-1-sulfonyl)-N-[(1-methyl-1H-pyrazol-3-yl)methyl]-1H-pyrrole-3-carboxamide] | 1500 | 21 |
| COc1ccc(S(=O)(=O)n2ccc(C(=O)NCc3ncc(C)cn3)c2)c(Cl)c1 [Compound 118, 1-(2-chloro-4-methoxybenzene-1-sulfonyl)-N-[(5-methylpyrimidin-2-yl)methyl]-1H-pyrrole-3-carboxamide] | 2500 | 20 |
